Laboratory results as given in US5278146A, “CRF analogs” (The Salk Institute for Biological Studies, priority 1992, dated 1994).
[ ]: non-standard residue; d: D form. Nle = CCCC[C@H](N)C(=O)O; Nva = CCC[C@H](N)C(=O)O

What was measured:
[1] = system: cultured rat pituitary cells; test: Secretion of ACTH and β-endorphin by cultured rat pituitary cells; format: cell-based; conditions: for Stimulation of the secretion of ACTH and β-END-LI: general procedure of Example III
Method: The synthetic peptide [D-Glu^20 ]-oCRF is examined for its effects on the secretion of ACTH and β-endorphin vitro and was also in vivo. The potency of synthetic [D-Glu^20 ]-oCRF to stimulate the secretion of ACTH and β-endorphin by cultured rat pituitary cells is measured using the procedure as generally set forth in Endocrinology, 91, 562 (1972) and compared against synthetic oCRF.

[2] = In vivo testing (procedure of C. Rivier et al., Science 218, 377): duration of potency and blood pressure; conditions: for Lowering of blood pressure: administered peripherally (where stated)

| Molecule | Stimulation of the secretion of ACTH and β-END-LI [1] | Lowering of blood pressure [2] | EC50 ([1]; cultured rat pituitary cells, read-out: Concentration at which half-maximal responses are observed (ACTH and β-endorphin secretion)) [nM] | Potency relative to the native hormone ([1]; in vitro, compared against synthetic oCRF) | Secretory response to maximal concentrations ([1]; maximal (1-5 nM) concentrations) | Duration of potency in vivo ([2]; in vivo) |
| --- | --- | --- | --- | --- | --- | --- |
| CC[C@H](C)[C@H](NC(=O)[C@@H](NC(=O)[C@H](CC(=O)O)NC(=O)[C@H](CC(C)C)NC(=O)[C@H](CC(C)C)NC(=O)[C@H](CC(C)C)NC(=O)[C@H](CCCNC(=N)N)NC(=O)[C@H](CC(N)=O)NC(=O)[C@H](CC(N)=O)NC(=O)[C@H](C)NC(=O)[C@H](C)NC(=O)[C@H](CCC(N)=O)NC(=O)[C@H](CCC(=O)O)NC(=O)[C@H](CCCCN)NC(=O)[C@H](CCC(=O)O)NC(=O)[C@H](CCCCN)NC(=O)[C@H](CCC(=O)O)NC(=O)[C@H](CCC(N)=O)NC(=O)[C@H](CCCCN)NC(=O)[C@H](CCCNC(=N)N)NC(=O)[C@H](C)NC(=O)[C@@H](CCC(=O)O)NC(=O)[C@@H](NC(=O)[C@H](CCSC)NC(=O)[C@H](CCCCN)NC(=O)[C@H](CCCNC(=N)N)NC(=O)[C@H](CC(C)C)NC(=O)[C@H](CC(C)C)NC(=O)[C@H](CCC(=O)O)NC(=O)[C@@H](Cc1ccccc1)NC(=O)[C@H](CO)NC(=O)[C@H](CC(C)C)NC(=O)[C@H](CC(=O)O)NC(=O)[C@@H](NC(=O)[C@H](CO)NC(=O)[C@@H](NC(=O)[C@@H]1CCCN1C(=O)[C@@H]1CCCN1C(=O)CNC(=O)[C@@H]1CCC(=O)N1)[C@@H](C)CC)[C@@H](C)CC)[C@@H](C)CC)[C@@H](C)CC)C(N)=O | stimulates the secretion of ACTH and β-END-LI | very significant lowering of blood pressure |  |  |  |  |
| CCCC[C@H](NC(=O)[C@@H](CCC(=O)O)NC(=O)[C@H](CC(C)C)NC(=O)[C@@H](NC(=O)[C@H](CCC(=O)O)NC(=O)[C@H](CCCNC(=N)N)NC(=O)[C@H](CC(C)C)NC(=O)[C@H](CC(C)C)NC(=O)[C@H](Cc1c[nH]cn1)NC(=O)[C@H](Cc1ccccc1)NC(=O)[C@@H](NC(=O)[C@H](CC(C)C)NC(=O)[C@H](CC(=O)O)NC(=O)[C@H](CC(C)C)NC(=O)[C@H](CO)NC(=O)[C@@H](NC(=O)[C@@H]1CCCN1C(=O)[C@@H]1CCCN1C(=O)[C@H](CCC(=O)O)NC(=O)[C@H](CCC(N)=O)NC(=O)[C@@H](N)CO)[C@@H](C)CC)[C@@H](C)O)C(C)C)C(=O)N[C@H](C(=O)N[C@@H](CCCCN)C(=O)N[C@@H](C)C(=O)N[C@@H](CC(=O)O)C(=O)N[C@@H](CCC(N)=O)C(=O)N[C@@H](CC(C)C)C(=O)N[C@@H](C)C(=O)N[C@@H](CCC(N)=O)C(=O)N[C@@H](CCC(N)=O)C(=O)N[C@@H](C)C(=O)N[C@H](Cc1c[nH]cn1)C(=O)N[C@@H](CO)C(=O)N[C@@H](CC(N)=O)C(=O)N[C@@H](CCCNC(=N)N)C(=O)N[C@@H](CCCCN)C(=O)N[C@@H](CC(C)C)C(=O)N[C@@H](CC(C)C)C(=O)N[C@@H](CC(=O)O)C(=O)N[C@H](C(=O)N[C@@H](C)C(N)=O)[C@@H](C)CC)[C@@H](C)O [[D-Glu^20, Nle^21, D-His^32]-oCRF] | stimulates the secretion of ACTH and β-END-LI | very significant lowering of blood pressure |  |  |  |  |
| CCCC[C@H](NC(=O)[C@@H](CCC(=O)O)NC(=O)[C@H](CC(C)C)NC(=O)[C@@H](NC(=O)[C@H](CCC(=O)O)NC(=O)[C@H](CCCNC(=N)N)NC(=O)[C@H](CC(C)C)NC(=O)[C@H](CC(C)C)NC(=O)[C@H](Cc1c[nH]cn1)NC(=O)[C@H](Cc1ccccc1)NC(=O)[C@@H](NC(=O)[C@H](CC(C)C)NC(=O)[C@H](CC(=O)O)NC(=O)[C@H](CC(C)C)NC(=O)[C@H](CO)NC(=O)[C@@H](NC(=O)[C@@H]1CCCN1C(=O)[C@@H]1CCCN1C(=O)[C@H](CCC(=O)O)NC(=O)[C@H](CCC(N)=O)NC(=O)[C@@H](N)CO)[C@@H](C)CC)[C@@H](C)O)C(C)C)C(=O)N[C@H](C(=O)N[C@@H](CCCCN)C(=O)N[C@@H](C)C(=O)N[C@@H](CC(=O)O)C(=O)N[C@@H](CCC(N)=O)C(=O)N[C@@H](CC(C)C)C(=O)N[C@@H](C)C(=O)N[C@@H](CCC(N)=O)C(=O)N[C@@H](CCC(N)=O)C(=O)N[C@@H](C)C(=O)N[C@@H](Cc1c[nH]cn1)C(=O)N[C@@H](CO)C(=O)N[C@@H](CC(N)=O)C(=O)N[C@@H](CCCNC(=N)N)C(=O)N[C@@H](CCCCN)C(=O)N[C@@H](CC(C)C)C(=O)N[C@@H](CC(C)C)C(=O)N[C@@H](CC(=O)O)C(=O)N[C@H](C(=O)N[C@@H](C)C(N)=O)[C@@H](C)CC)[C@@H](C)O [[D-Glu^20, Nle^21]-oCRF] | stimulates the secretion of ACTH and β-END-LI | very significant lowering of blood pressure |  |  |  |  |
| CC[C@H](C)[C@H](NC(=O)[C@H](CC(=O)O)NC(=O)[C@H](CC(C)C)NC(=O)[C@H](CC(C)C)NC(=O)[C@H](CCCCN)NC(=O)[C@H](CCCNC(=N)N)NC(=O)[C@H](CC(N)=O)NC(=O)[C@H](CO)NC(=O)[C@H](Cc1c[nH]cn1)NC(=O)[C@H](C)NC(=O)[C@H](CCC(N)=O)NC(=O)[C@H](CCC(N)=O)NC(=O)[C@H](C)NC(=O)[C@H](CC(C)C)NC(=O)[C@H](CCC(N)=O)NC(=O)[C@H](CC(=O)O)NC(=O)[C@H](C)NC(=O)[C@H](CCCCN)NC(=O)[C@@H](NC(=O)[C@H](CCSC)NC(=O)[C@@H](CCC(=O)O)NC(=O)[C@H](CC(C)C)NC(=O)[C@@H](NC(=O)[C@H](CCC(=O)O)NC(=O)[C@H](CCCNC(=N)N)NC(=O)[C@H](CC(C)C)NC(=O)[C@H](CC(C)C)NC(=O)[C@H](Cc1c[nH]cn1)NC(=O)[C@H](Cc1ccccc1)NC(=O)[C@@H](NC(=O)[C@H](CC(C)C)NC(=O)[C@H](CC(=O)O)NC(=O)[C@H](CC(C)C)NC(=O)[C@H](CO)NC(=O)[C@@H](NC(=O)[C@@H]1CCCN1C(=O)[C@@H]1CCCN1C(=O)[C@H](CCC(=O)O)NC(=O)[C@H](CCC(N)=O)NC(=O)[C@@H](N)CO)[C@@H](C)CC)[C@@H](C)O)C(C)C)[C@@H](C)O)C(=O)N[C@@H](C)C(N)=O [[D-Glu^20]-oCRF] |  | significant lowering of blood pressure | ~0.17 | about twice as potent as the native hormone | at a plateau level | longer duration of potency |
| Bz-Ser-Leu-Asp-Leu-Thr-D-Phe-His-Leu-Leu-Arg-Glu-Val-Leu-Glu-Nle-Ala-Arg-Ala-Glu-Gln-Leu-Ala-Gln-Gln-Ala-D-His-Ser-Asn-Arg-Lys-Leu-Nle-Glu-Ile-Ile-NH2 | stimulates the secretion of ACTH and β-END-LI | very significant lowering of blood pressure |  |  |  |  |
| H-D-Pro-Pro-Ile-Ser-Leu-Asp-Leu-Thr-D-Phe-His-Leu-Leu-Arg-Glu-Val-Leu-Glu- Nle-Ala-Arg-Ala-Glu-Gln-Leu-Ala-Gln-Gln-Ala-His-Ser-Asn-Arg-Lys-CML-Nle-Ile-Ile-NH2 | stimulates the secretion of ACTH and β-END-LI | very significant lowering of blood pressure |  |  |  |  |
| H-SQEPPISLDLTFHLLREVL[dE][Nle]TK[dA]DQLAQQAHSNRKL[Nle]DIA-NH2 [[D-Glu^20, D-Ala^24, Nle^21,38]-oCRF] | stimulates the secretion of ACTH and β-END-LI | very significant lowering of blood pressure |  |  |  |  |
| H-SQEPPISLDLTFHLLRE[Nle]L[dE][Nle]AKAEQEAEQA[dH]LNRLLLEEA-NH2 [[Nle^18,21, D-Glu^20, D-His^32]-AHC] | stimulates the secretion of ACTH and β-END-LI | very significant lowering of blood pressure |  |  |  |  |
| H-SQEPPISLDLT[dF]HLLREML[dE]RAKAEQEAEQAALNRLLLEEA-NH2 [[D-Phe^12, D-Glu^20, Arg^21]-AHC] | stimulates the secretion of ACTH and β-END-LI | very significant lowering of blood pressure |  |  |  |  |
| H-SQEPPISLDLT[dF]HLLRE[Nle]LE[Nle]AK[dA]EQEAEQAALNRLLLEEA-NH2 [[D-Phe^12, Nle^18,21, D-Ala^24]-AHC] | stimulates the secretion of ACTH and β-END-LI | very significant lowering of blood pressure |  |  |  |  |
| H-SQ[dY]PPISLDLTFHLLRE[Nle]L[dE][Nva]AK[dA]EQEAEQAALNRLLLEEA-NH2 | stimulates the secretion of ACTH and β-END-LI | very significant lowering of blood pressure |  |  |  |  |
| H-Ser-Gln-Glu-Pro-Pro-Ile-Ser-Leu-Asp-Leu-Thr-D-Phe-Glu-Leu-Leu-Arg-Glu-Met-T-Glu-Ile-Ala-Lys-Ala-Glu-Gln-Glu-Ala-Glu-Gln-Ala-Ala-Leu-Asn-Arg-Lys-Tyr-Leu-Glu-Glu-Val-NH2 | stimulates the secretion of ACTH and β-END-LI | very significant lowering of blood pressure |  |  |  |  |
| H-Ser-Glu-Glu-Pro-Pro-Ile-Ser-Leu-Asp-Leu-Thr-D-Phe-Glu-Lue-Leu-Arg-Glu-Nle-Leu-Glu-Met-Glu-Orn-Ala-Glu-Lys-Glu-Ala-Glu-Gln-Ala-Ala-Leu-Asn-Arg-Leu-Leu-Leu-Glu-Glu-Ala-NH2 | stimulates the secretion of ACTH and β-END-LI | very significant lowering of blood pressure |  |  |  |  |
| H-pGlu-Glu-Pro-Pro-Ile-Ser-Leu-Asp-:-Thr-D-Phe-His-Leu-Leu-Arg-Glu-Val-Leu-Glu-Met-Ala-Arg-D-Ala-Glu-Gln-Leu-Ala-Gln-Gln-Ala-His-Ser-Asn-Arg-Lys-Leu- Met-Glu-Ile-Ile-NH2 [[pGlu^2, D-Phe^12, D-Ala^24]-rCRF(2-41)] | stimulates the secretion of ACTH and β-END-LI | very significant lowering of blood pressure |  |  |  |  |
